Earlier results, collected in patent US20230218693A1, “HEMP SPROUT PRODUCTS AND METHODS FOR PRODUCING SAME” (priority 2020, published 2023).
Read-outs that look alike come from different tables or passages of the source. Values belong to the compound of their own block, whether it stands above or below them.

Assays:
COX-2 [1] = target: T1, COX-2 (Homo sapiens, UniProt P35354)
T1 sequence (P35354 18-604): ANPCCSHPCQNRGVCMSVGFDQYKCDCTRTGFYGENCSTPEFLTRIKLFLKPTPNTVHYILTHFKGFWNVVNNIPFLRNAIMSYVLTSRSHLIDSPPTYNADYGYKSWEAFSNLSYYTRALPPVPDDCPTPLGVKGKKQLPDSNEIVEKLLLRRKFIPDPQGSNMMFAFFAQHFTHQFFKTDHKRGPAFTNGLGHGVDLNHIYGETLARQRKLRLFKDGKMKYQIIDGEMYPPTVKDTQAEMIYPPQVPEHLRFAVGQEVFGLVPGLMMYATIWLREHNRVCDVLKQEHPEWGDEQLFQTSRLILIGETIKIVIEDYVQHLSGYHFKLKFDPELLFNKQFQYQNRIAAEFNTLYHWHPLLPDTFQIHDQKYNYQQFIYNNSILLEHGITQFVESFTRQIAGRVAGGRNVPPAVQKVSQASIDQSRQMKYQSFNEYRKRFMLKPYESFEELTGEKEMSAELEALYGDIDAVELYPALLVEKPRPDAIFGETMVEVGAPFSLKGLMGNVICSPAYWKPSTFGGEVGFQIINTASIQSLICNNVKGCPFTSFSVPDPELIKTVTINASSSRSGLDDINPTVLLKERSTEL

COX-2 [2] = target: T1, COX-2; set-up: endogenous in cells; host or cells: freshly isolated human monocytes; conditions: COX-2, monocytes
[3] = test system: freshly isolated human blood cells; conditions: for Effect on cell viability: human cells
COX-1 [4] = target: T2, COX-1 (Homo sapiens, UniProt P23219); conditions: COX-1, platelets
T2 construct: endogenous in cells; host or cells: freshly isolated human blood cells (platelets, according to the assay name)

5-LO [5] = target: T3, 5-LO (Homo sapiens, UniProt P09917); set-up: endogenous in cells; host or cells: freshly isolated human neutrophils (PMNL); conditions: PMNL
T3 sequence (P09917 1-674): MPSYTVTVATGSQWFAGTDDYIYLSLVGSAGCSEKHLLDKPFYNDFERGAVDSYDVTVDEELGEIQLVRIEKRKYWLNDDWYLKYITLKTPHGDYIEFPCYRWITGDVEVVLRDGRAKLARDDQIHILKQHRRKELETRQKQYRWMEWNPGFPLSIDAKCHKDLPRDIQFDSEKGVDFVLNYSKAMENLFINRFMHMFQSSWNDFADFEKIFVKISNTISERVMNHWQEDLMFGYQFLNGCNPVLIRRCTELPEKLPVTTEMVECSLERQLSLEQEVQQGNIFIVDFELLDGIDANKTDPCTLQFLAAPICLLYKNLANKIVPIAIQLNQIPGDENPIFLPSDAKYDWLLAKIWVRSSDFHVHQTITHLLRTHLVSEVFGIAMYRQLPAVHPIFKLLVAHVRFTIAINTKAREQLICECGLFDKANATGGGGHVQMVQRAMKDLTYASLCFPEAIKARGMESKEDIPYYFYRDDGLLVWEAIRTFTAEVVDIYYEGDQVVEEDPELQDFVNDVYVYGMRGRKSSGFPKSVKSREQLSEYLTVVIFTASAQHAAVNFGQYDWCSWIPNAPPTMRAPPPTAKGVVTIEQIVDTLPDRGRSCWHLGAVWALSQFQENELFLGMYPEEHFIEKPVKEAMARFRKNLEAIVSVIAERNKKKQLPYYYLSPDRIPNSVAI

mPGES-1 = target: T4, mPGES-1 (Homo sapiens, UniProt O14684)
T4 sequence (O14684 1-152): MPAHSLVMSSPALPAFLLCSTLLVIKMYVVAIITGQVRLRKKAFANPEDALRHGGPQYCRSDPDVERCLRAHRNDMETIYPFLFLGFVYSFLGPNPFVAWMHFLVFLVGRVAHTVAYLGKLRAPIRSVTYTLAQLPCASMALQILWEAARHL

COX-1 [6] = test system: COX-1
cPLA2 = target: T5, cPLA2 (Homo sapiens, UniProt P47712); conditions: cPLA2, cell-free
T5 sequence (P47712 1-749): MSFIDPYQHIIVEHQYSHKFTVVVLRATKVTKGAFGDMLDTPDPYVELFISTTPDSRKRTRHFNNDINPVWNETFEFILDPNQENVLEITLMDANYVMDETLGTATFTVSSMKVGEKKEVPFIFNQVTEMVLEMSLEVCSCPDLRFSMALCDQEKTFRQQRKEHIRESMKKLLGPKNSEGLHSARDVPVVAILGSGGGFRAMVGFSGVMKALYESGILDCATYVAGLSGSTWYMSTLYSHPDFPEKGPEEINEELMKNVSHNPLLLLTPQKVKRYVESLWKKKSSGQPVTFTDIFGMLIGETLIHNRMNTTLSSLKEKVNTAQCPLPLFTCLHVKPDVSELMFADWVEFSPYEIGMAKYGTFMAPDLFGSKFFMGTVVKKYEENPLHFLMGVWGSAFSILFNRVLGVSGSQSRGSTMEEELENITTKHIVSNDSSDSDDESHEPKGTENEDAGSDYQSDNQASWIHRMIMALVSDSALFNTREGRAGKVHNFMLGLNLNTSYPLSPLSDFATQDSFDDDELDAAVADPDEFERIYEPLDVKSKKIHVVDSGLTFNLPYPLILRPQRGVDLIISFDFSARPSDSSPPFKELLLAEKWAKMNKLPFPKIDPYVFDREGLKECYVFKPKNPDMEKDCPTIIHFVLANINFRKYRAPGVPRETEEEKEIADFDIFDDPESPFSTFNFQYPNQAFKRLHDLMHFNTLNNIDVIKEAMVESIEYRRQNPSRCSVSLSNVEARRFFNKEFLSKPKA

5-LO [7] = target: T3, 5-LO; set-up: endogenous in cells; host or cells: freshly isolated human neutrophils (PMNL); conditions: PMNL, A23187 + AA
5-LO [8] = target: T3, 5-LO; conditions: 5-LO cell-free
PGE2 = conditions: result in words
[9] = result in words
[10] = result in words; remark: listed apart in the source
[11] = test system: HepG2 human hepatic carcinoma cells; conditions: dose-dependently up to 500 μM

T2 sequence (P23219 24-599): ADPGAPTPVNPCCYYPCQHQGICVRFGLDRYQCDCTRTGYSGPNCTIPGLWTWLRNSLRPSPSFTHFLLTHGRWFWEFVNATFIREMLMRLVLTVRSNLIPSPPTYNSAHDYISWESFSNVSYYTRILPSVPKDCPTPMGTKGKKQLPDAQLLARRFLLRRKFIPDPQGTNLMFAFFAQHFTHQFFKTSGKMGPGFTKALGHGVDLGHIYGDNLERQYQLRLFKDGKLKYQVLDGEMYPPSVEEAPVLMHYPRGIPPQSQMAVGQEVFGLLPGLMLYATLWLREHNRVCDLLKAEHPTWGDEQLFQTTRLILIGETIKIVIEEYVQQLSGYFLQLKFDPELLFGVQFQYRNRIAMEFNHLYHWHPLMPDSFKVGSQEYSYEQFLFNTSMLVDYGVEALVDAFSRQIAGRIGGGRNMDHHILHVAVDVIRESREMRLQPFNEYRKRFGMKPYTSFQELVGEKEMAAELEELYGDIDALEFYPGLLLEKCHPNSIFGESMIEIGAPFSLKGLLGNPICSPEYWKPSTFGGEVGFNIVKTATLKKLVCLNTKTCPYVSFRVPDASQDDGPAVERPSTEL

% inhibition at 10 μM (COX-2 [1]; COX-2, cell-free, 10 μM): 35 ± 12%
IC50 (COX-2 [1]; COX-2, cell-free, read-out: CFA(1) IC50): > 10000 nM
Inhibition of COX-2 (COX-2 [1]; result in words): did not significantly inhibit COX-2
% inhibition at 10 μM (COX-2 [2]; 10 μM): 56 ± 8%
IC50 (COX-2 [2]; read-out: CFA(1) IC50): 8800 nM
% inhibition at 10 μM (COX-1 [4]; 10 μM, vs vehicle (0.1% DMSO)): 26 ± 2%
IC50 (COX-1 [4]; added 15 min prior induction, read-out: CFA(1) IC50): > 10000 nM
% inhibition at 10 μM (5-LO [5]; A23187, 10 μM): 98 ± 2%
IC50 (5-LO [5]; A23187, read-out: CFA(1) IC50): 2400 nM
% inhibition at 10 μM (mPGES-1; mPGES-1, cell-free, 10 μM): 90 ± 1%
IC50 (mPGES-1; mPGES-1, cell-free, read-out: CFA(1) IC50): 1800 nM
Inhibition of mPGES-1 (mPGES-1; result in words): directly inhibited mPGES-1
IC50 (COX-1 [6]; COX-1, cell-free, read-out: CFA(1) IC50): > 10000 nM
% inhibition at 10 μM (cPLA2; 10 μM): 26 ± 8%
IC50 (cPLA2; read-out: CFA(1) IC50): > 10000 nM
% inhibition at 10 μM (5-LO [7]; 10 μM): 91 ± 1%
IC50 (5-LO [7]; read-out: CFA(1) IC50): 1600 nM
% inhibition at 10 μM (5-LO [8]; 10 μM): 88 ± 3%
IC50 (5-LO [8]; read-out: CFA(1) IC50): 900 nM
SMILES: COc1cc(-c2cc(=O)c3c(O)c(C/C=C(\C)CCC=C(C)C)c(O)cc3o2)ccc1O [CFA, Cannflavin A]
Effect on cell viability [3]: no effect
Effect on cell viability ([3]; listed as cannflavin A): no deleterious effects on human cell viability
Cytotoxicity ([3]; result in words): no evidence of cytotoxicity
% inhibition at 10 μM (COX-1 [6]; COX-1, cell-free, 10 μM): 36 ± 2%
Inhibition of COX-1 (COX-1 [6]; result in words): did not significantly inhibit COX-1
Effect in DPPH assay (antioxidant activity): No effect
Effect in DPPH assay (antioxidant activity) (listed as cannflavin A): did not demonstrate innate antioxidant activity
Suppression of PGE2 (PGE2): suppressed PGE2

SMILES: COc1ccc2c(c1)c(CC(=O)O)c(C)n2C(=O)c1ccc(Cl)cc1 [Indomethacin, reference compound]
Reference control, % inhibition at indic. conc. (COX-1 [6]; COX-1, cell-free, 20 μM): Indomethacin (20 μM), 81 ± 8%

Reference control, % inhibition at indic. conc. (5-LO [8]; 3 μM): Zileuton (3 μM), 80 ± 4%
SMILES: CC(c1cc2ccccc2s1)N(O)C(N)=O (stereo not shown) [Zileuton, reference compound]

SMILES: O=C(/C=C/c1ccc(O)c(O)c1)NCCc1ccc(O)cc1 [caffeoyltyramine]
Antioxidant activity against DPPH radicals [9]: demonstrated antioxidant activity against DPPH radicals
Inhibition of human LDL oxidation [10]: prominent inhibition of human LDL oxidation

SMILES: O=C(NCCc1ccc(O)cc1)C1=Cc2cc(O)c(O)cc2[C@H](c2ccc(O)c(O)c2)[C@H]1C(=O)NCCc1ccc(O)cc1 [cannabisin B]
Antioxidant activity against DPPH radicals [9]: demonstrated antioxidant activity against DPPH radicals
Antiproliferative effects in HepG2 cells [11]: produced antiproliferative effects
Inhibition of human LDL oxidation [10]: prominent inhibition of human LDL oxidation
